The results in this text go back to patent publication US11400160B2, “Multifunctional conjugates” (E.P.O.S IASIS Research and Development Limited, priority 2017, dated 2022).

One assay deals with MCF-7 cells. Put plainly: Cell viability, crystal violet colorimetric assay. The following applies: 72 hrs; for IC50: tested at 0.02-0.1 mM, unstarred values. The class given is cell-based. On the procedure: Immortalised osteolytic metastatic breast cancer cell lines, a) hormone-dependent MCF-7 and b) hormone refractory MDA-MB231, together with the daughter line MDA-MB231TXSA were incubated with 5 gradual concentrations of compounds of the invention as described below. Cell viability was assessed with the crystal violet colorimetric assay and IC50s were evaluated.
Medium was removed from cell cultures and cells were fixed with 4% v/v formaldehyde for 5 mins at room temperature. Formalin was then removed and CV added for 10 mins at room temperature followed by several washes with dsH2O. Samples were allowed to dry overnight. The following day, 10% acetic acid was added for 15 mins and optical density at 620 nm was measured. Optical densities versus compound concentrations were plotted in graphs and IC50s estimated by linear regression analysis using the WorkOut (VictorX4) software.
MCF-7, MDA-MB231 and MDA-MB231TXSA cells were seeded in 96-well-plates and allowed to attach overnight. […]
Cells were cultured in the presence of the compounds for 72 hrs and viability was assessed on day 3 by crystal violet assay. The cell lines were selected for their high bone metastatic potential. The fluorescently transfected line MB231TXSA, derived from line MB231 is also used in animal studies (WP7).

Another assay has as its system RAW264.7 cells. Put plainly: In vitro osteoclastogenesis of RAW264.7 (TRAP staining). The class given is cell-based, murine. The following applies: RANKL-differentiated; γ-tocopherol at 1 μg/ml and 201 μg/ml; bpp(OEt) at increasing concentrations; FIG. 4. On the procedure:
(§1) Human peripheral blood mononuclear cells (PBMCs) and the RAW264.7 murine monocytic cell line were differentiated into osteoclast-like cells in the presence of RANKL plus M-CSF and have been used as model systems of osteoclastogenesis. Osteoclast-like cells, from Giant Cell Tumours (GCT) of bone specimens from three independent donors were used to investigate the effect of compounds of the invention on the bone resorbing activity of mature osteoclasts.
Cells were cultured in 96-well plates at a density of 1×10^4 cells/well in DMEM medium with 10% FCS, L-glutamine (2 mM) and Hepes (20 mM). Cells were allowed to attach for 4 hrs before treatment with RANKL (50 ng/ml) in the presence or absence of increasing concentrations of compounds of the invention as above. Medium and treatments were replaced on day three and TRAP activity determined on day 5. The overall number of viable cells were determined by crystal violet staining.
Osteoclast cultures established by the differentiation of RAW264.7 cells in wells were fixed and stained for tartrate resistant acid phosphatase (TRAP) as recommended by the manufacturer on days 4 and 5. TRAP positive cells were visualised by light microscopy and images taken with a digital camera.

Assay [1] has as its system mature osteoclasts isolated from human Giant Cell Tumours (GCT) of bone. Kind of assay: Bone resorption by mature osteoclasts from Giant Cell Tumours of bone. In kind it is cell-based. The settings on record: osteoclasts from human GCT of bone on whale dentine, 5 days.
Excerpt: as §1
To determine the effect of compounds of the invention on bone resorbing activity of mature osteoclast, cultured cells isolated from primary human Giant Cell Tumours of bone specimens were used. These cells were plated on whale dentine slices in 96-well plates at a density of 1×10^5/well and treated for 5 days with increasing concentrations of compounds of the invention. Medium and treatments were replaced on day three and pit formation determined on day 5.
Whale dentine slices will be washed in extran, rinsed with distilled water, washed in 70% ethanol and dried overnight. […] Images will be analysed using ImageQuant software and the area of resorption determined for each dentine slice (quadruplicate dentine slices for each treatment). Results are expected to be average resorption area +/− standard errors of the mean (SEM) and the significant differences between treatments will be determined using Students t-tests (2-tailed, unpaired).

Assay [2] relates to primary human osteoblast cultures. Kind of assay: Osteoblast mineralization (alizarin red, calcium in cell layer). The class given is cell-based. The settings on record: up to 15 days, osteo-inductive conditions; compared to free BP; alizarin red and calcium; FIG. 6. On the procedure:
The effect of free γToc and BP-γToc treatment on osteoblast function, using mineralized bone nodule-forming primary human osteoblast cultures was investigated.
Osteoblasts harvested from human donors at the time of joint replacement surgery were cultured up to 15 days in serum-containing medium under osteo-inductive conditions.

The next assay relates to Balb/c Nu/Nu mice. Put plainly: Intratibial injection of compounds, micro-CT trabecular bone volume. In kind it is in vivo. The following applies: 10 μl into tibial marrow space, 3 weeks, μCT; compared to the maternal BP compound; preliminary data; FIG. 8. How it is done:
Four week old female Balb/c Nu/Nu mice were housed under pathogen free conditions, in accordance with the guidelines approved by the Institute of Medical and Veterinary Science animal ethics research committee. Mice were randomly assigned into 3 groups of 4 animals. The left tibia was wiped with 70% ethanol and a 26 gauge needle coupled to a Hamilton syringe, was inserted through the tibial plateau with the knee flexed and 10 μl of each drug injected into the marrow space. Mice were humanely killed 3 weeks post drug administration and bone morphometric parameters were assessed using high resolution micro-CT and histology.
• Group 1: Bpp(OEt) (BP) (20 μM) • Group 2: γ-Tocotrienol (20 μM) • Group 3: γ-Tocotrienol-BP conjugate (20 μM) Micro-Computer Tomography Analysis
Both the right and left tibiae of each animal were mounted in the CT specimen tube and placed securely into the SkyScan-1072 X-ray micro-CT Scanner (Aartselaar, Belgium). The program was commenced with magnification set to give scan slices of 5.2 microns. Three-dimensional (3D) images were generated using Cone-Beam reconstruction and 3D visualisation (Skyscan). Using the two dimensional (2D) images obtained from the micro-CT scan, the growth plate was identified and 750 sections, starting from the growth plate/tibial interface and moving down the tibia, were selected. […]

Assay [3] deals with Caspase-3 activity in MB231 breast cancer cell-line. Kind of assay: Caspase-3 enzymatic activity assay. The class given is cell-based. How it is done: Cells were grown in 12 well-plates in the presence of IC50 concentrations of compounds of the invention or culture medium with 0.1% v/v ethanol as control and were washed with PBS and incubated with lysis buffer for 15 mins at 4° C. Lysates were centrifuged at 15000 g. 20 μl of each lysate suspension was incubated with 100 μl of protease buffer containing 10 μM of fluorescent substrate zDEVD-AFC (3 samples/lysate) for 4 hrs at room temperature. Caspase-3 enzymatic activity was measured every 1 hr by fluorescence with excitation at 405 nm and emission at 515/30 nm.
Fluorescence measurements were plotted in graphs against time and were statistically analysed by two-way ANOVA followed by Bonferroni post-tests to identify statistically significant apoptotic activities of compounds of the invention (see FIG. 3).

As usually defined, the EC50 is the midpoint of the concentration-response curve. What is called IC50 is the concentration that gives 50% inhibition. Higher therefore signals weaker potency in that assay. Turning to `Cc1c(O)cc2c(c1C)O[C@](C)(CCC[C@H](C)CCC[C@H](C)CCCC(C)C)CC2` [γ-toc, γ-tocopherol, reference compound], in the assay on MCF-7 cells (Exp.1, * denotes EC50 value, read-out: EC50 value (starred) MCF-7), the EC50 worked out at 439 µM. This compound had an IC50 in the assay on MCF-7 cells (Exp.2) of 128 µM. The “osteoclastogenesis of Raw264.7” value in the assay on RAW264.7 cells is reported as “increased osteoclastogenesis”. Moreover, the “bone resorption by already mature osteoclasts” value in assay [1] is given as “inhibited bone resorption”. In assay [2], the “matrix-containing mineralized nodules in osteoblast cultures” value was “progressively increased matrix-containing mineralized nodules”. Further, the “trabecular bone volume at the site of injection” value in the assay with Balb/c Nu/Nu mice is listed as “significant increase in trabecular bone volume”.
Regarding `CCOP(=O)(OCC)C(CCC(=O)Oc1cc2c(c(C)c1C)OC(C)(CCCC(C)CCCC(C)CCCC(C)C)CC2)P(=O)(OCC)OCC` (stereo not shown) [γ-toc-bpp(OEt), γ-tocopheryl bisphosphonic ester], the IC50 with MCF-7 cells (Exp.1) was 114 µM; with MCF-7 cells (Exp.2) it was 81.5 µM. For the same compound, the “pro-apoptotic activity (Caspase-3 activity)” value in assay [3] (IC50 concentrations, two-way ANOVA with Bonferroni post-tests) was “statistically significant pro-apoptotic activities”. The “time-point at which the increased Caspase-3 activity was present” value in assay [3] (measured every 1 hr for 4 hrs) stood at 3 h. Further, the “bone resorption by already mature osteoclasts” value in assay [1] is reported as “inhibited bone resorption”. In assay [2], the “matrix-containing mineralized nodules in osteoblast cultures” value is recorded as “progressively increased matrix-containing mineralized nodules”. In the assay on Balb/c Nu/Nu mice, the “trabecular bone volume at the site of injection” value is recorded as “significant increase in trabecular bone volume”.
